Patent publication US9440941B2, “Substituted chroman-6-yloxy-cycloalkanes and their use as pharmaceuticals” (SANOFI, priority 2013, dated 2016)
Counter-ions that a name gives are not always drawn.

These molecules were tested against T1, human NCX1 (Homo sapiens, UniProt P32418) (assay: Inhibition of Ca2+ influx into cells (NCX1 reverse mode), FLIPR Fluo-4 assay). Details: inhibition of NCX1 in reverse mode (Ca2+ influx into cells); read-out: NCX1rv IC50.
T1 construct: expressed in transfected cells
Format: cell-based
Text: The sodium/calcium exchanger NCX1 can transport calcium ions and sodium ions through the cell membrane. The transport is an exchange of Ca^2+ and Na^+ in two directions depending on membrane potential and ion gradients. At the first direction, named “forward mode” or “calcium export mode”, Ca^2+ is transported out of the cell and Na^+ is transported into the cell. At the other direction, named “reverse mode” or “calcium import mode”, the transport directions are vice versa. The effect of the compounds of the invention on NCX1 was determined in CHO cells stably expressing human NCX1 (gene symbol SLC8A1; cf. WO 2009/115238). The assay is based on the monitoring of intracellular Ca^2+ concentrations using a calcium-sensitive fluorescence dye which is detected by means of a FLIPR device (Fluorimetric Imaging Plate Reader, Molecular Devices).
Assay Technology—Reverse Mode
The assay is based on the monitoring of intracellular Ca^2+ concentrations using the calcium-sensitive dye Fluo-4. CHO cells expressing NCX1 were loaded with the dye by means of the acetoxymethyl ester Fluo-4 AM (Invitrogen, F14202), which is cleaved intracellularly by esterase activity to yield the charged species of free Fluo-4. After an preincubation period with the test compound, Gramicidine (Sigma, G5002) was added. Gramicidine is an ionophor for Na^+ ions mediating an increase of intracellular Na^+ ions. Consequently, intracellular Na^+ ions are exchanged against extracellular Ca^2+ ions (Ca^2+ influx, reverse mode). The intracellular elevation of Ca^2+ ions was detected by measuring the fluorescence of Fluo-4 at a wavelength of 520 nm by a FLIPR device.
Briefly, for the reverse mode transport assay 18000 cells per well were seeded into a 96 well microplate (Corning COSTAR 3904) and incubated overnight in culture medium (1× Nut Mix F12 (Ham) (Gibco, 21765-029); 10% (v/v) fetal calf serum (PAA Gold, A15-649); 450 μg/ml Geneticin (Gibco, 10131-027)). A total volume of 100 μl medium per well was used. For the preparation of the FLIPR assay, the culture medium was removed from the plates and 100 μl of dye solution (2 μM Fluo-4 AM; 0.02% (v/v) Pluronic F-127 (20%, Invitrogen, P3000MP); 0.1% (v/v) bovine albumin solution (30% (v/v), Sigma, A9205) in assay buffer (133.8 mM NaCl (Sigma, S5886); 4.7 mM KCl (Sigma, P3911); 1.25 mM MgCl2 (Merck, 1.05833.0250); 3.5 mM CaCl2 (Merck, 1.02083.0250); 5 mM glucose (Sigma, G7021); 10 mM Hepes (Sigma, H4034); 0.01% (v/v) Pluronic F-127 (5%, Sigma, P2443); 2.5 mM Probenecid (Maybridge, SB00915EB); pH 7.4)) were added into each well. The plates were incubated in the dark at room temperature for 80 min. After the incubation period, the dye solution was removed and the wells were washed with 100 μl of assay buffer. Then 80 μl of a solution of the test compound in assay buffer in different concentrations were added into the wells. The plates were incubated at 16° C. for 45 min. Meanwhile a 60 μM solution of Gramicidine in assay buffer (4° C.) was prepared and stored in the wells of a 96 well microplate (96 well microplate, polypropylene, U-shape (Greiner Bio-One, 650201)) at 4° C. until measurement was started. The fluorescence monitoring was performed at 240 measuring points with measurement intervals of 2 sec. After the fifth measuring point, 40 μl of the Gramicidine solution were added to each well of the assay plates to give a final Gramicidine concentration of 20 μM. For the determination of the IC50 values the minimal fluorescence value was subtracted from the maximal fluorescence value for all measuring points. The calculation of the IC50 values via the percentage inhibitions of Ca^2+ influx into cells (reverse mode) effected by the test compound was performed in Biost@t Speed 2.0.

Row | IC50 | Molecule
1 | 700 nM | 1,1-Dioxo-N-[4-(2-phenylchroman-6-yloxy)cyclohexyl]-tetrahydrothiophen-3-ylamine [compound 147]
2 | 2100 nM | 4-(2-Phenylchroman-6-yloxy)-N-(2-piperidin-1-ylethyl)cyclohexylamine [compound 145]
3 | 1300 nM | 4-(2-Phenylchroman-6-yloxy)-N-(2-pyrrolidin-1-ylethyl)cyclohexylamine [compound 137]
4 | 1000 nM | 4-(2-Phenylchroman-6-yloxy)-N-(2-thiomorpholin-4-ylethyl)cyclohexylamine [compound 139]
5 | 500 nM | NC[C@H]1CC[C@@H](Oc2ccc3c(c2)CCC(c2ccccc2)O3)CC1 (relative stereo) [compound 1, hydrochloride]
6 | 1300 nM | N[C@H]1CC[C@@H](Oc2ccc3c(c2)CCC(c2ccccc2)O3)CC1 (relative stereo) [compound 2, hydrochloride]
7 | 700 nM | CS(=O)(=O)NC[C@H]1CC[C@@H](Oc2ccc3c(c2)CCC(c2ccccc2)O3)CC1 (relative stereo) [compound 3]
8 | 400 nM | CC(=O)NC[C@H]1CC[C@@H](Oc2ccc3c(c2)CCC(c2ccccc2)O3)CC1 (relative stereo) [compound 4]
9 | 500 nM | CC(=O)N[C@H]1CC[C@@H](Oc2ccc3c(c2)CCC(c2ccccc2)O3)CC1 (relative stereo) [compound 6]
10 | 300 nM | CC(=O)N[C@H]1CC[C@H](Oc2ccc3c(c2)CCC(c2ccccc2)O3)CC1 (relative stereo) [compound 7]
11 | 100 nM | CSCC(=O)N[C@H]1CC[C@H](Oc2ccc3c(c2)CCC(c2ccccc2)O3)CC1 (relative stereo) [compound 19]
12 | 200 nM | O=C(N[C@H]1CC[C@H](Oc2ccc3c(c2)CCC(c2ccccc2)O3)CC1)C1CCC1 (relative stereo) [compound 20]
13 | 200 nM | CS(=O)(=O)CCC(=O)N[C@H]1CC[C@H](Oc2ccc3c(c2)CCC(c2ccccc2)O3)CC1 (relative stereo) [compound 21]
14 | 300 nM | O=C(Cn1cccn1)N[C@H]1CC[C@H](Oc2ccc3c(c2)CCC(c2ccccc2)O3)CC1 (relative stereo) [compound 24]
15 | 200 nM | Cc1cc(CC(=O)N[C@H]2CC[C@H](Oc3ccc4c(c3)CCC(c3ccccc3)O4)CC2)on1 (relative stereo) [compound 25]
16 | 100 nM | O=C(N[C@H]1CC[C@H](Oc2ccc3c(c2)CCC(c2ccccc2)O3)CC1)C1CC1 (relative stereo) [compound 26]
17 | 200 nM | O=C(CC1CC1)N[C@H]1CC[C@H](Oc2ccc3c(c2)CCC(c2ccccc2)O3)CC1 (relative stereo) [compound 27]
18 | 200 nM | Cc1ccn(CC(=O)N[C@H]2CC[C@H](Oc3ccc4c(c3)CCC(c3ccccc3)O4)CC2)n1 (relative stereo) [compound 28]
19 | 300 nM | Cc1nc(C(=O)N[C@H]2CC[C@H](Oc3ccc4c(c3)CCC(c3ccccc3)O4)CC2)cs1 (relative stereo) [compound 29]
20 | 300 nM | COCCC(=O)N[C@H]1CC[C@H](Oc2ccc3c(c2)CCC(c2ccccc2)O3)CC1 (relative stereo) [compound 30]
21 | 100 nM | O=C(N[C@H]1CC[C@H](Oc2ccc3c(c2)CCC(c2ccccc2)O3)CC1)c1ccncc1F (relative stereo) [compound 31]
22 | 100 nM | O=C(N[C@H]1CC[C@H](Oc2ccc3c(c2)CCC(c2ccccc2)O3)CC1)C1CC1(F)F (relative stereo) [compound 32]

Row | IC50 | Molecule
23 | 100 nM | O=C(Cn1cncn1)N[C@H]1CC[C@H](Oc2ccc3c(c2)CCC(c2ccccc2)O3)CC1 (relative stereo) [compound 35]
24 | 300 nM | Cc1nn(C)c(C)c1CCC(=O)N[C@H]1CC[C@H](Oc2ccc3c(c2)CCC(c2ccccc2)O3)CC1 (relative stereo) [compound 36]
25 | 300 nM | Cc1n[nH]c(C)c1CCC(=O)N[C@H]1CC[C@H](Oc2ccc3c(c2)CCC(c2ccccc2)O3)CC1 (relative stereo) [compound 37]
26 | 400 nM | O=C(CCn1cncn1)N[C@H]1CC[C@H](Oc2ccc3c(c2)CCC(c2ccccc2)O3)CC1 (relative stereo) [compound 38]
27 | 300 nM | O=C(CCn1cccn1)N[C@H]1CC[C@H](Oc2ccc3c(c2)CCC(c2ccccc2)O3)CC1 (relative stereo) [compound 39]
28 | 300 nM | Cc1nc(CC(=O)N[C@H]2CC[C@H](Oc3ccc4c(c3)CCC(c3ccccc3)O4)CC2)c(C)s1 (relative stereo) [compound 40]
29 | 300 nM | Cc1cc(C)n(CC(=O)N[C@H]2CC[C@H](Oc3ccc4c(c3)CCC(c3ccccc3)O4)CC2)n1 (relative stereo) [compound 41]
30 | 200 nM | Cc1ccnn1CCC(=O)N[C@H]1CC[C@H](Oc2ccc3c(c2)CCC(c2ccccc2)O3)CC1 (relative stereo) [compound 42]
31 | 100 nM | Cc1n[nH]c(C)c1CC(=O)N[C@H]1CC[C@H](Oc2ccc3c(c2)CCC(c2ccccc2)O3)CC1 (relative stereo) [compound 43]
32 | 300 nM | CCC(C)(O)C(=O)N[C@H]1CC[C@H](Oc2ccc3c(c2)CCC(c2ccccc2)O3)CC1 (relative stereo) [compound 44]
33 | 400 nM | c1ccc(C2CCc3cc(O[C@H]4CC[C@H](NCc5cncs5)CC4)ccc3O2)cc1 (relative stereo) [compound 47]
34 | 600 nM | c1ccc(C2CCc3cc(O[C@H]4CC[C@H](NCc5ccsc5)CC4)ccc3O2)cc1 (relative stereo) [compound 50]
35 | 600 nM | c1ccc(C2CCc3cc(O[C@H]4CC[C@H](NCc5cccs5)CC4)ccc3O2)cc1 (relative stereo) [compound 51]
36 | 600 nM | FC(F)(F)CCN[C@H]1CC[C@H](Oc2ccc3c(c2)CCC(c2ccccc2)O3)CC1 (relative stereo) [compound 54]
37 | 400 nM | c1ccc(C2CCc3cc(O[C@H]4CC[C@H](NCc5nccs5)CC4)ccc3O2)cc1 (relative stereo) [compound 55]
38 | 600 nM | CC(C)(C)CN[C@H]1CC[C@H](Oc2ccc3c(c2)CCC(c2ccccc2)O3)CC1 (relative stereo) [compound 58, N-(2,2-Dimethylpropyl)-[trans-4-(2-phenylchroman-6-yloxy)]-cyclohexylamine]
39 | 400 nM | Cc1nn(C)c(C)c1CN[C@H]1CC[C@H](Oc2ccc3c(c2)CCC(c2ccccc2)O3)CC1 (relative stereo) [compound 60]
40 | 300 nM | c1ccc(C2CCc3cc(O[C@H]4CC[C@H](NCC5CCOC5)CC4)ccc3O2)cc1 (relative stereo) [compound 61]
41 | 2000 nM | C[C@H]1CC[C@H](NC2CCC(Oc3ccc4c(c3)CCC(c3ccccc3)O4)CC2)CC1 (relative stereo) [compound 146]
42 | 1200 nM | Cc1ccccc1C1CCc2cc(O[C@H]3CC[C@H](NC(=O)CCn4cccn4)CC3)ccc2O1 (relative stereo) [compound 153]
43 | 2200 nM | Cc1ccccc1C1CCc2cc(O[C@H]3CC[C@H](NCC4CCOC4)CC3)ccc2O1 (relative stereo) [compound 154, (Tetrahydrofuran-3-ylmethyl)-[trans-4-(2-o-tolyl-chroman-6-yloxy)-cyclohexyl]-amine]
44 | 5300 nM | Cc1ccccc1C1CCc2cc(O[C@H]3CC[C@H](N(CC4CCOC4)CC4CCOC4)CC3)ccc2O1 (relative stereo) [compound 155, Bis-(tetrahydrofuran-3-ylmethyl)-[trans-4-(2-o-tolyl-chroman-6-yloxy)-cyclohexyl]-amine]
